# Columns and labels:
# Format in all cases: physicochemical
# [1] = Effect of temperature and solvent on the equilibrium composition of the pteropodine isomers
# Description: | Effect of temperature and solvent on the equilibrium composition | of the pteropodine isomers (temperature from 25 to | 50° C., % per weight) The use of solvents with different polarity gave different equilibria, while other conditions were identical.
# [2] = Effect of temperature and solvent on the equilibrium composition of the mitraphylline isomers
# Text: The use of solvents with different polarity gave different equilibria, while other conditions were identical.
# physchem = settings: 1-octanol/water
# Text: (§1) Protonation of the alkaloid hinders partition into the solvent, but the dependence of the distribution coefficient on pH is different for each isomer due to their different basicity. When the isomerization takes place in such a two-phase system, the equilibrium obtained in the organic phase is different from that in the aqueous phase. As an example, the coefficients of distribution Ko/w of mitraphylline and isomitraphylline between 1-octanol and water at three pH values and the corresponding equilibria are given in table 6 (FIG.11). |Coefficients of distribution between 1-octanol and water KO/W for |mitraphylline and isomitraphylline and the resulting equilibria as a |function of pH at 25° C. (% per weight).
# [3] = Equilibrium of mitraphylline isomers in the two-phase system 1-octanol/water; settings: for resulting equilibrium (water): aqueous phase; for resulting equilibrium (octanol): octanol phase
# Text: as §1
# [4] = Effect of temperature on the rate of isomerization of pteropodine; settings: water, c=20 mg/l, 50 hours
# Description: The effect of temperature on the rate of reaction was investigated. Pteropodine was dissolved in water (c=20 mg/l) and isomerized at various temperatures for 50 hours. The reactions were monitored (FIG. 9). An increase of temperature by 12° C. accelerated the reaction by a factor of 5.
# [5] = Isomerization of pteropodine in hexafluoropropan-2-ol; settings: 18 mg/l, 8 days at 20° C.
# Description: It is known from the literature that oxindole alkaloids undergo isomerization in polar solvents. Therefore hexafluoropropan-2-ol as a highly polar solvent was examined for its suitability as a medium for isomerization. A solution of pteropodine in hexafluoropropan-2-ol with a concentration of 18 mg/l was allowed to rest for 8 days at 20° C. Continually, samples were taken and analyzed. […] Pyridine has been reported to be a suitable solvent for the isomerization, although its polarity is very low. Our results confirmed this, but only when at least small portions of water were present. […] Important causes of solvent polarity are the dielectricity constant and the ability to form hydrogen bonds. The correlation of dielectricity and rate of reaction was investigated (table 1).
# [6] = Effect of pH on equilibrium and rate of isomerization; settings: for dependence of isomer equilibrium mixture on pH: water-methanol 9:1, c=30 mg/l
# Text: It is known from the literature (J. -L. Pousset, J. Poisson and M. Shamma, Bull.Soc.Chim. (1967), 2766) that oxindole alkaloids isomerize via a zwitterionic intermediate which is formed at the β-amino carboxyl system. There a double bond is formed between the amino nitrogen and the β-carbon, the bond between α and β-carbon is opened, and the spiro centre at the co-carbon becomes free for inversion (FIG. 2). […] The pH of a mixture of 9 parts of water and 1 part of methanol was adjusted to values from 2 to 9 by addition of phosphoric acid or sodium hydroxide, respectively. Pteropodine (c=30 mg/l) was isomerized in these solvents until the equilibrium was reached. […] The dependence of the pteropodine equilibrium on pH in pure water was investigated, too (FIG. 3b). […] (FIG. 4).
# [7] = Rate of isomerization of pteropodine in solvents and solvent mixtures; settings: 50° C.; for rate coefficient of isomerization k: k = k12 + k13 + k14 from initial rate
# Description: It is known from the literature that oxindole alkaloids undergo isomerization in polar solvents. Therefore hexafluoropropan-2-ol as a highly polar solvent was examined for its suitability as a medium for isomerization. A solution of pteropodine in hexafluoropropan-2-ol with a concentration of 18 mg/l was allowed to rest for 8 days at 20° C. Continually, samples were taken and analyzed. […] Pyridine has been reported to be a suitable solvent for the isomerization, although its polarity is very low. Our results confirmed this, but only when at least small portions of water were present. […] Important causes of solvent polarity are the dielectricity constant and the ability to form hydrogen bonds. The correlation of dielectricity and rate of reaction was investigated (table 1). | Correlation of the rate coefficient of isomerization of pteropodine and |dielectricity constant ε in pure solvents at 50° C.^a | ^a The rate coefficient k was determined from the initial rate of | isomerization of pteropodine and, therefore, is a composite coefficient k | = k12 + k13 + k14 and has the dimension [h^-1 ]. The | coefficient k12 describes the transformation of pteropodine to | isopteropodine, k13 to speciophylline and k14 to uncarine F, | respectively. […] But it was noticed that solvents with the ability to form hydrogen bonds, like formamide, water, glycerol or methanol, effect faster isomerization than solvents without this ability. […] Consequently, mixtures of solvents were produced from one part with a high dielectricity constant and another part with the ability to form hydrogen bonds as a proton donor. Mixtures of one part formamide and one part alcohol turned out to be suitable reaction media. Water is the only solvent which combines a high dielectricity constant with the ability to form hydrogen bonds to an extent which allows satisfactory reaction rates. However, oxindole alkaloids are practically insoluble in water. Thus, it is obvious to use suitable co-solvents.
smiles,measurement,setting,value
"COC(=O)C1=COC(C)C2CN3CCC4(C(=O)Nc5ccccc54)C3CC12 (stereo not drawn) [Speciophylline, speciophylline]",equilibrium composition,"[1]; 25° C., methanol",0.4 % per weight
same,equilibrium composition,"[1]; 25° C., water",4.3 % per weight
same,equilibrium composition,"[1]; 37° C., methanol",0.5 % per weight
same,equilibrium composition,"[1]; 37° C., water",4.5 % per weight
same,equilibrium composition,"[1]; 50° C., methanol",1.0 % per weight
same,equilibrium composition,"[1]; 50° C., water",4.6 % per weight
"COC(=O)C1=CO[C@@H](C)[C@@H]2CN3CC[C@@]4(C(=O)Nc5ccccc54)[C@@H]3C[C@H]12 [Isopteropodine, isopteropodine]",equilibrium composition,"[1]; 25° C., methanol",75.4 % per weight
same,equilibrium composition,"[1]; 25° C., water",60.9 % per weight
same,equilibrium composition,"[1]; 37° C., methanol",75.5 % per weight
same,equilibrium composition,"[1]; 37° C., water",59.6 % per weight
same,equilibrium composition,"[1]; 50° C., methanol",73.5 % per weight
same,equilibrium composition,"[1]; 50° C., water",59.4 % per weight
"COC(=O)C1=COC(C)C2CN3CCC4(C(=O)Nc5ccccc54)C3CC12 (stereo not drawn) [Isomitraphylline, isomitraphylline]",equilibrium composition,"[2]; 25° C., methanol",77.5 % per weight
same,equilibrium composition,"[2]; 25° C., water",65.6 % per weight
same,equilibrium composition,"[2]; 37° C., methanol",75.0 % per weight
same,equilibrium composition,"[2]; 37° C., water",67.5 % per weight
same,equilibrium composition,"[2]; 50° C., methanol",73.7 % per weight
same,equilibrium composition,"[2]; 50° C., water",68.0 % per weight
same,log KO/W,physchem; pH 3,0.43
same,log KO/W,physchem; pH 5,2.3
same,log KO/W,physchem; pH 7,2.8
same,resulting equilibrium (water),"[3]; pH 3, 25° C.",11.9 % per weight
same,resulting equilibrium (water),"[3]; pH 5, 25° C.",0.5 % per weight
same,resulting equilibrium (water),"[3]; pH 7, 25° C.",0.08 % per weight
same,resulting equilibrium (octanol),"[3]; pH 3, 25° C.",32.0 % per weight
same,resulting equilibrium (octanol),"[3]; pH 5, 25° C.",93.9 % per weight
same,resulting equilibrium (octanol),"[3]; pH 7, 25° C.",78.8 % per weight
"COC(=O)C1=COC(C)C2CN3CCC4(C(=O)Nc5ccccc54)C3CC12 (stereo not drawn) [Mitraphylline, mitraphylline]",equilibrium composition,"[2]; 25° C., methanol",22.5 % per weight
same,equilibrium composition,"[2]; 25° C., water",34.4 % per weight
same,equilibrium composition,"[2]; 37° C., methanol",25.0 % per weight
same,equilibrium composition,"[2]; 37° C., water",32.5 % per weight
same,equilibrium composition,"[2]; 50° C., methanol",26.3 % per weight
same,equilibrium composition,"[2]; 50° C., water",32.0 % per weight
same,log KO/W,physchem; pH 3,-0.24
same,log KO/W,physchem; pH 5,0.67
same,logD,"physchem; pH 7, log KO/W",2.5
same,resulting equilibrium (water),"[3]; pH 3, 25° C.",35.6 % per weight
same,resulting equilibrium (water),"[3]; pH 5, 25° C.",1.0 % per weight
same,resulting equilibrium (water),"[3]; pH 7, 25° C.",0.12 % per weight
same,resulting equilibrium (octanol),"[3]; pH 3, 25° C.",20.5 % per weight
same,resulting equilibrium (octanol),"[3]; pH 5, 25° C.",4.6 % per weight
same,resulting equilibrium (octanol),"[3]; pH 7, 25° C.",21.0 % per weight
"COC(=O)C1=COC(C)C2CN3CCC4(C(=O)Nc5ccccc54)C3CC12 (stereo not drawn) [Uncarine F, uncarine F]",equilibrium composition,"[1]; 25° C., methanol",1.3 % per weight
same,equilibrium composition,"[1]; 25° C., water",5.2 % per weight
same,equilibrium composition,"[1]; 37° C., methanol",1.4 % per weight
same,equilibrium composition,"[1]; 37° C., water",6.1 % per weight
same,equilibrium composition,"[1]; 50° C., methanol",2.0 % per weight
same,equilibrium composition,"[1]; 50° C., water",6.4 % per weight
"COC(=O)C1=COC(C)C2CN3CCC4(C(=O)Nc5ccccc54)C3CC12 (stereo not drawn) [Pteropodine, pteropodine]",acceleration of the reaction by an increase of temperature by 12° C. (factor),[4],5
same,isomerization,[5],No isomerization was observed
same,dependence of isomer equilibrium mixture on pH,[6]; acidic solutions,depended characteristically on the pH value
same,dependence of isomer equilibrium mixture on pH,[6]; neutral or alkaline solutions,independent of pH in neutral or alkaline solutions
same,rate of reaction with increasing proton concentration,[6]; pH 2 to 9,decreased with increasing proton concentration
same,rate coefficient of isomerization k,[7]; dimethyl sulfoxide,0.00007 h⁻¹
same,rate coefficient of isomerization k,[7]; dioxane,0.0000004 h⁻¹
same,rate coefficient of isomerization k,[7]; formamide,0.005 h⁻¹
same,rate of isomerization k,[7]; formamide-hexafluorpropan-2-ol (1:1),0.0037 h⁻¹
same,rate of isomerization k,[7]; formamide-methanol (1:1),0.0050 h⁻¹
same,rate coefficient of isomerization k,[7]; glycerol,0.0072 h⁻¹
same,rate coefficient of isomerization k,[7]; methanol,0.0020 h⁻¹
same,rate of isomerization k,[7]; methanol-dimethyl sulfoxide (1:1),0.0018 h⁻¹
same,rate of isomerization k,[7]; methanol-dioxane (1:1),0.0024 h⁻¹
same,rate coefficient of isomerization k,[7]; pyridine,0.00002 h⁻¹
same,rate coefficient of isomerization k,[7]; water,1.11 h⁻¹
same,rate of isomerization k,[7]; water-acetonitrile (1:1),0.042 h⁻¹
same,rate of isomerization k,[7]; water-dioxane (1:1),0.0012 h⁻¹
same,rate of isomerization k,[7]; water-formamide (1:1),0.067 h⁻¹
same,rate of isomerization k,[7]; water-methanol (1:1),0.043 h⁻¹
same,rate of isomerization k,[7]; water-pyridine (1:1),0.002 h⁻¹
same,equilibrium composition,"[1]; 25° C., methanol",22.9 % per weight
same,equilibrium composition,"[1]; 25° C., water",29.6 % per weight
same,equilibrium composition,"[1]; 37° C., methanol",22.6 % per weight
same,equilibrium composition,"[1]; 37° C., water",29.8 % per weight
same,equilibrium composition,"[1]; 50° C., methanol",23.5 % per weight
same,equilibrium composition,"[1]; 50° C., water",29.6 % per weight

# From patent US5723625A, “Process for the production of specific isomer mixtures from oxindole alkaloids” (Immodal Pharmaka Gesellschaft m.b.H, priority 1994, dated 1998)
